± gives the expanded uncertainty stated by the source.
Assay: xn = mol fraction of the nth substance listed
Settings: 101 kPa, Liquid; for viscosity: Capillary tube (Ostwald / Ubbelohde) method; for mass density: Vibrating tube method

OCCOCCO [diethylene glycol] + CCCC(C)O
Settings	mass density, 298.15 K [kg/m3]	mass density, 303.15 K [kg/m3]	mass density, 308.15 K [kg/m3]	mass density, 313.15 K [kg/m3]	viscosity, 298.15 K [mPa·s]	viscosity, 303.15 K [mPa·s]	viscosity, 308.15 K [mPa·s]	viscosity, 313.15 K [mPa·s]
x1 = 0.0811	827.8 ± 0.2	823.5 ± 0.2	818.9 ± 0.2	814.6 ± 0.2	3.85 ± 0.16	3.17 ± 0.13	2.84 ± 0.12	2.47 ± 0.1
x1 = 0.1598	849.9 ± 0.2	845.5 ± 0.2	840.8 ± 0.2	836.5 ± 0.2	4.44 ± 0.18	3.55 ± 0.14	3.29 ± 0.13	2.93 ± 0.12
x1 = 0.2399	872.9 ± 0.2	868.4 ± 0.2	863.5 ± 0.2	859.2 ± 0.2	5.12 ± 0.21	4.05 ± 0.16	3.79 ± 0.15	3.44 ± 0.14
x1 = 0.3501	905.1 ± 0.2	900.6 ± 0.2	895.7 ± 0.2	891.3 ± 0.2	6.37 ± 0.26	5.03 ± 0.2	4.58 ± 0.19	4.26 ± 0.17
x1 = 0.4398	931.9 ± 0.2	927.5 ± 0.2	922.6 ± 0.2	918.2 ± 0.2	7.79 ± 0.32	6.17 ± 0.25	5.42 ± 0.22	5.08 ± 0.21
x1 = 0.5599	968.7 ± 0.2	964.2 ± 0.2	959.5 ± 0.2	955.2 ± 0.2	10.37 ± 0.42	8.3 ± 0.34	6.9 ± 0.28	6.46 ± 0.26
x1 = 0.6501	997.1 ± 0.2	992.8 ± 0.2	988.1 ± 0.2	983.9 ± 0.2	12.9 ± 0.52	10.35 ± 0.42	8.33 ± 0.34	7.74 ± 0.31
x1 = 0.7399	1025.8 ± 0.3	1021.7 ± 0.3	1017.4 ± 0.3	1013.1 ± 0.3	15.92 ± 0.65	12.81 ± 0.52	10.08 ± 0.41	9.22 ± 0.37
x1 = 0.8499	1061.8 ± 0.3	1058.1 ± 0.3	1053.9 ± 0.3	1050 ± 0.3	20.26 ± 0.82	16.33 ± 0.66	12.72 ± 0.52	11.36 ± 0.46
x1 = 0.9399	1091.9 ± 0.3	1088.3 ± 0.3	1084.7 ± 0.3	1081.1 ± 0.3	24.28 ± 0.98	19.56 ± 0.79	15.31 ± 0.62	13.35 ± 0.54
x1 = 1	1112.4 ± 0.3	1109.1 ± 0.3	1105.6 ± 0.3	1102.3 ± 0.3	27.14 ± 1.1	21.87 ± 0.89	17.26 ± 0.7	14.81 ± 0.6

OCCOCCO [diethylene glycol] + CCCCC(C)O
x1 = 1
Settings	mass density [kg/m3]	viscosity [mPa·s]
298.15 K	1112.4 ± 0.3	27.15 ± 1.1
303.15 K	1109.1 ± 0.3	21.87 ± 0.89
308.15 K	1105.6 ± 0.3	17.26 ± 0.7
313.15 K	1102.3 ± 0.3	14.81 ± 0.6

OCCOCCO [diethylene glycol] + CCCCCC(C)O
x1 = 1
Settings	mass density [kg/m3]	viscosity [mPa·s]
298.15 K	1112.4 ± 0.3	27.14 ± 1.1
303.15 K	1109.1 ± 0.3	21.87 ± 0.89
308.15 K	1105.6 ± 0.3	17.26 ± 0.7
313.15 K	1102.3 ± 0.3	14.81 ± 0.6

CCCC(C)O (configuration not stated) [pentan-2-ol] + OCCOCCO
x2 = 0
Settings	mass density [kg/m3]	viscosity [mPa·s]
298.15 K	805.4 ± 0.2	3.2 ± 0.13
303.15 K	801.2 ± 0.2	2.8 ± 0.11
308.15 K	796.6 ± 0.2	2.33 ± 0.09
313.15 K	792.5 ± 0.2	1.99 ± 0.08

From the NIST ThermoML archive (doi:10.1021/je300827f)
